2 compounds from patent publication US20250339547A1, “MET BCL-XL INHIBITOR ANTIBODY-DRUG CONJUGATES AND METHODS OF USE THEREOF” (Novartis AG, priority 2022, published 2025) can be followed below.

Molecules are shown by their SMILES.

Common to all, as to assay type: cell-based
Assay [1] has as its system SNU-5. Kind of assay: In vitro activity in SNU-5 cell line (CTG 120h), Example 6. Particulars: Homo sapiens, SNU-5, 120 h, SNU-5, CTG 120 h. As for the experimental part: (§1) Cell lines were cultured in the media described above at 37° C. in a humidified atmosphere containing 5% CO2. Cells were seeded in 96 well clear bottom plates (96 well clear-bottom, white, Corning reference 3903) and exposed to the mAbs or ADCs for 120h (serially diluted; 9 concentrations each, triplicates). Effects of mAbs or ADCs on cell viability were assessed after 5 days of incubation at 37° C./5% CO2 by quantification of cellular ATP levels using CellTiter-Glo reagent (Promega Ref: G7571) at 75 μL reagent/well. All the conditions were tested in triplicates. Luminescence was quantified on a multipurpose plate reader. IC50s were calculated using standard four-parametric curve fitting. IC50 is defined as the compound concentration at which the CTG signal is reduced to 50% of that measured for the control. Two independent experiments were performed (N1 and N2). IC50 data of each experiment and the arithmetic mean is shown in Table 14 for all the antibodies and ADCs tested.

In assay [2] the test system is LOUNH-91. The assay is described as follows: In vitro activity in LOUNH-91 cell line (CTG 120h), Example 6. Particulars: LOU-NH91, 120 h, LOUNH91, CTG 120 h. As for the experimental part:
as §1

Assay [3] deals with EBC-1. Kind of assay: In vitro activity in EBC-1 cell line (CTG 120h), Example 12. The following applies: Homo sapiens, EBC-1, 120 h, EBC1, CTG 120 h. How it is done:
as §1, with “EBC-1 and SNU-5 cell lines” for “Cell lines”, “CO2. The cells” for “CO2. Cells”, “N2).” for “N2). IC50 data of each experiment and the arithmetic mean is shown in Table 14 for all the antibodies and ADCs tested.”
Plating Conditions: EBC-1: 75 μL/well of 60000 cells/mL for 120h in 96-well plate SNU-5: 75 μL/well of 60000 cells/mL for 120h in 96-well plate H1650 (ATOC): 75 μL/well of 125000 cells/mL for 120h in 96 microwell round bottom plates

Assay [4] relates to lung cancer cell lines. Kind of assay: Lung cancer cell line panel of Example 7, statements in text (CTG 120h). Particulars: lung cancer cell lines of Table 15, single agents. As for the experimental part: Cell lines were cultured in the media described above at 37° C. in a humidified atmosphere containing 5% CO2. Cells were seeded in 96 well clear bottom plates (96 well clear-bottom, white, Corning reference 3903) and exposed to the mAbs, mAbs mixture, ADCs or ADCs mixture as single agents or in 1:1 combination with Paclitaxel. When in 1:1 combination, both the combining partner (Paclitaxel) and the mAb, mAb mixture, ADC or ADC mixture were serially diluted (9 concentrations each, triplicates). Effect on cell viability was assessed after 5 days of incubation at 37° C./5% CO2 by quantification of cellular ATP levels using CellTiter-Glo reagent (Promega Ref: G7571) at 75 μL reagent/well. All the conditions were tested in triplicates. Luminescence was quantified on a multipurpose plate reader. IC50s were calculated using standard four-parametric curve fitting. IC50 is defined as the compound concentration at which the CTG signal is reduced to 50% of that measured for the control. Two independent experiments were performed (N1 and N2).

The test system of assay [5] is pancreatic cancer cell lines. The assay is described as follows: Pancreatic cancer cell line panel of Example 10 (CTG 120h). Particulars: pancreatic cancer cell lines of Table 16, single agents.
Description: Cell lines were cultured in the media described above at 37° C. in a humidified atmosphere containing 5% CO2. […] When in 1:1 combination, both the combining partner (Paclitaxel, Trametinib or Gemcitabine) and the mAb or ADC were serially diluted (9 concentrations each, triplicates). Effect on cell viability was assessed after 5 days of incubation at 37° C./5% CO2 by quantification of cellular ATP levels using CellTiter-Glo reagent (Promega Ref: G7571) at 75 μL reagent/well. All the conditions were tested in triplicates. Luminescence was quantified on a multipurpose plate reader. IC50s were calculated using standard four-parametric curve fitting. […] Two independent experiments were performed (N1 and N2).

In the case of `Cc1c(Nc2nc3ccccc3s2)nnc2c1CCCN2c1ccc(-c2cnn(C[C@]34C[C@]5(C)C[C@](C)(C3)C[C@@](OCCNCCCO)(C5)C4)c2C)c(C(=O)O)n1` [P25, 6-[3-(1,3-benzothiazol-2-ylamino)-4-methyl-6,7-dihydro-5H-pyrido[2,3-c]pyridazin-8-yl]-3-[1-[[3-[2-(3-hydroxypropylamino)ethoxy]-5,7-dimethyl-1-adamantyl]methyl]-5-methyl-pyrazol-4-yl]pyridine-2-carboxylic acid], the IC50 came to 10700 nM in assay [1] (mean); 10600 nM in assay [1] (n = 1); 10800 nM in assay [1] (n = 2); 7.07 nM in assay [2] (mean); 6.43 nM in assay [2] (n = 1); 7.71 nM in assay [2] (n = 2). For the same compound, the IC50 amounted to 12.6 nM in assay [3] (Mean), 12.8 nM in assay [3] (N1) and 12.4 nM in assay [3] (N2).
Consider `CC(=O)O[C@H]1C(=O)[C@@]2(C)[C@H]([C@H](OC(=O)c3ccccc3)[C@]3(O)C[C@H](OC(=O)[C@H](O)[C@@H](NC(=O)c4ccccc4)c4ccccc4)C(C)=C1C3(C)C)[C@]1(OC(C)=O)CO[C@@H]1C[C@@H]2O` [Paclitaxel, paclitaxel], for which the figures for the “effect on the viability” value in assay [4] and in assay [5] were “induced dose dependent decrease in cell viability (with measurable IC50) in all cell lines except NCI-H1838” and “induced dose dependent decrease in cell viability with measurable IC50 for most of the cell lines”, respectively.

A word on the IC50: it is the concentration that inhibits the measured activity by half.
